# Measured values as given in ChEMBL document CHEMBL1147122, “Eurysterols A and B, cytotoxic and antifungal steroidal sulfates from a marine sponge of the genus Euryspongia” (J Nat Prod, 2007).
# Tests used:
# Candida albicans [1] = test: Antifungal activity against amphotericin-B-resistant Candida albicans ATCC 90873 after 14 to 16 hrs; format: functional
# HCT-116 = test: Cytotoxicity against human HCT116 cells after 72 hrs; format: cell-based; conditions: HCT-116, 72 h
# Candida albicans [2] = test: Antifungal activity against wild type-Candida albicans ATCC 32354 after 14 to 16 hrs; format: functional
SMILES,MIC (Candida albicans [1]),IC50 (HCT-116),MIC (Candida albicans [2])
CC(C)CCC[C@@H](C)[C@H]1CC[C@@H]2[C@]1(C)CC[C@H]1[C@@]23C[C@@H](O)[C@@]2(O)C[C@@H](OS(=O)(=O)[O-])CC[C@]12CO3.[Na+] [EURYSTEROL A],15.6 mg/L,2.9 mg/L,15.6 mg/L
CC(C)C/C=C/[C@@H](C)[C@H]1CC[C@@H]2[C@]1(C)CC[C@H]1[C@@]23C[C@@H](O)[C@@]2(O)C[C@@H](OS(=O)(=O)[O-])CC[C@]12CO3.[Na+] [EURYSTEROL B],62.5 mg/L,14.3 mg/L,62.5 mg/L
